In brackets after ≈: the same amount, converted by molar mass. Entries after “also recorded” stand apart in the source; their conditions may differ. Where two headings read alike, the source gives them in different places.
What was measured:
[1] = test system: organotypic hippocampal slice cultures; assay: Oxygen-glucose deprivation (OGD) in organotypic hippocampal slice cultures, propidium iodide staining; assay type: cell-based, rat; details: 20 min OGD, PI 24 h later; SKA-41 30 μM, MK-801 20 μM, riluzole 30 μM, NBQX 10 μM/AP5 50 μM
Description: OGD is an in vitro model for transient cerebral ischemia. In preliminary studies, we prepared hippocampal slice cultures from P7-8 rat pups. Experiments were performed at 14 DIV, when presynaptic Glu function is maximal and synapse formation and NMDAR subunit expression have reached a developmental stage sufficient to sensitize the slice to excitotoxic injury. Propidium iodide (PI), which binds to DNA in a nonspecific manner by penetrating damaged phospholipoid bilayers, was used to assess neural injury 24 h after OGD. […] SKA-41 was present 30 min prior to OGD, during OGD and during the 24 h recovery period.

[2] = test system: rats injected with kainic acid (KA); assay: Kainic acid (KA) seizure model, behaviour; assay type: in vivo, rat
Excerpt: […]. Systemic administration of the glutamate analog, kainic acid (KA), to rats produces progressive limbic seizures culminating in status epilepticus that results in neuronal loss within limbic structures in a pattern similar to that observed in human temporal lobe epilepsy.

[3] = test system: hippocampal neurons of KA-treated rats; assay: KA-induced status epilepticus model, hippocampal neurodegeneration (fluoro-jade B, NeuN); assay type: in vivo, rat; details: rat, in vivo
Excerpt: (§1) In Aim 3, we treat male and female rats with the ‘best’ SKA-41 derivatives before and after injection of kainic acid (KA). The KA-induced status epilepticus (SE) model is a well-validated model of temporal lobe epilepsy (TLE), the major form of human epilepsy. The model allows studying the different stages between SE and the development of TLE including SE, the acute and latent stages of epileptogenesis and chronic epilepsy. The excitotoxin KA causes excessive Glu release in the hippocampus and selective destruction of inhibitory SOM interneurons in the hilus region of the dentate gyrus (DG) and loss of pyramidal neurons in the CA3 (esp), and also CA1 regions. We scaled up synthesis of SKA-41, 219, and SKA-378. The identity of the compounds was confirmed by ^1H- and ^13C-NMR and high-resolution mass spectrometry. Compound purity is determined by HPLC and no compounds with less then 98% purity were used. […] Rats were processed for immunohistochemistry 3 days after KA administration. As expected, we find that KA treatment induces significant neural damage (green cells) in the CA3 pyramidal neuron subfield and in neurons in the hilus (FIG. 20 Panel A), which are SOM containing GABAergic interneurons (not shown). Fluoro jade B is a high affinity fluorescent marker used for the localization of neuronal degeneration. […] In studies, we have also administered SKA-378 (30 mg/kg) one hr after the onset of stage IV seizures (SE), followed by another injection at 4 hr post SE and then once each day for 3 days. We find that SKA-378 is also neuroprotective under these conditions.
as §1, with “with” for “with the ‘best’”, “(esp)” for “(esp),”, “were” for “was”, “We” for “As expected, we”, “23” for “20”, “Fluoro-jade” for “Fluoro jade”

[4] = Max. solubility (Table 1); assay type: physicochemical
KCa channels = details: cited from earlier work
[5] = Tolerability observation after i.p. dosing of SKA-41; details: for tolerability: 10 mg/kg i.p., rats

In the case of `Nc1nc(-c2ccc(OC(F)(F)F)cc2)cs1` [SKA-41, 4-(4-(Trifluoromethoxy)phenyl)thiazol-2-amine], the “OGD-induced neural injury (PI staining)” value [1] is reported as “completely prevents PI staining; also recorded: prevents OGD-induced neural injury”, the “time until staring and twitching signs disappeared after KA injection” value ([2]; SKA-41 30 mg/kg pretreatment) is reported as at most 2 h and the “clonic-tonic convulsions after KA” value ([2]; rat, in vivo) is reported as “clonic-tonic convulsions were not observed”. The “neuroprotection against Glu-induced excitotoxicity in the KA model of TLE” value [3] was “neuroprotective”, the solubility [4] was 50 µM (≈ 13 µg/mL) and the “effect on KCa channels / KCa currents” value (KCa channels) was “no effect”. The “effect on KCa channels / KCa currents” value (KCa channels; listed as SKA41) was “no effect; also recorded: inactive”, the tolerability [5] was “well tolerated with no overt toxicity or sedation; also recorded: well tolerated” and the tolerability ([5]; listed as SKA41) was “well tolerated with no overt toxicity or sedation”. For the same molecule, the untoward effects ([5]; 10-30 mg/kg) was “did not observe any untoward effects”.
